Measured values taken from patent US20220280423A1, “GLYMPHATIC DELIVERY BY MANIPULATING PLASMA OSMOLARITY” (University of Rochester, priority 2018, published 2022).
“Also recorded” adds a separate entry of the source. Marks after values point to notes of the source that are not given here.

Assays:
[1] = Head-focused SPECT/CT of ^111In—AuNP or ^111In-LA-DOTA infused to the cisterna magna, 0-3 h; format: in vivo, Sprague-Dawley rats; parameters: AUC0-3 h Striatum / AUC0-3 h Thalamus / AUC0-3 h Intracranial / AUC0-3 h Brain / AUC0-3 h Cervical spine / AUC0-3 h Nasal turbinates / AUC0-3 h Pharyngeal lymph vessel / AUC0-3 h Deep lymph nodes: concentration or dose not given beside the values; conditions: VEH (isotonic saline i.p.)
Protocol: Cisterna magna cannulation was performed as previously described with minor modifications (Xavier et al. J Vis Exp e57378-e57378 (2018)). Rats were anesthetized with a mixture of ketamine (100 mg/kg) and dexmedetomidine (0.5 mg/kg), administered subcutaneously in a volume of 2 ml/kg. After verification of loss of response to toe pinch, animals were placed in a stereotaxic frame and the neck slightly flexed (30°). The atlanto-occipital membrane overlying the cisterna magna was surgically exposed and a 30 G short-bevelled dental needle connected to PE10 tubing was carefully inserted into the intrathecal space. The catheter was fixed to the dura with cyanoacrylate glue and dental cement.
For post-operative analgesia, rats that were imaged for 24 hours received 5 mg/kg carprofen (Rimadyl® vet, 50 mg/mL, Orion Pharma, Espoo, Finland) s.c. at the beginning of surgery. Temperature was monitored and normothermia was maintained with a heating pad. […] The total volume of 32 μL was infused over 20 minutes. Five minutes before the AuNP infusion started, rats received either hypertonic saline (1 M, 20 mL/kg i.p.) or isotonic saline (0.154 M, 20 mL/kg i.p.). In the MRI experiments, all rats received a hypertonic saline injection, and the infusion rate of Gd-labelled nanoparticles was the same, but the total infusion volume was 80 μL.
Radioactivity of the infused dose was measured with VIK-202 dose calibrator (Comecer, Joure, The Netherlands). The Vector4CT (MILabs, Utrecht, Netherlands) system was used for SPECT/CT imaging. SPECT images were acquired with a high energy ultra high resolution rat 1.8 mm pinhole collimator (HE-UHR-RM 1.8 mm ph). Acquired images were reconstructed using Similarity-Regulated Ordered Subsets […] (SROSEM) with a voxel size of 0.6 mm and 5 iterations. Both decays at the 111-In photopeaks (±20%) and background at 20% outside each photopeak window) were individually used for the reconstruction. Two highly accurate energy dependent system matrices for iterative image reconstruction (SROSEM' Vaissier, P. E. B., Beekman, F. J. & Goorden, M. C. Similarity-regulation of OS-EM for accelerated SPECT reconstruction. Physics in Medicine and Biology 61, 4300-4315 (2016)) were used to minimize artifacts in ^111In imaging with high local uptake and no background activity in surrounding structures. In each matrix the effects of energy dependent pinhole penetration (calculated using a ray tracer, Goorden et al. Physics in Medicine and Biology 61, 3712-3733 (2016)) and intrinsic detector resolution with depth of interaction (DOI) effects in the crystal were modelled. The DOI effect was calculated using GATE Monte Carlo simulations (Jan, S. et al. Physics in Medicine and Biology 49, 4543-4561 (2004)) that was stored in tables and used in the raytracer. Matrices were generated for 171 keV and 245 keV photons and were used during the reconstruction from projections of the corresponding energy peaks. The resulting SPECT images were then added and averaged to obtain the final ^111In image. Head and full-body CT images were acquired directly after the SPECT scans in the same imaging session. SPECT data were attenuation corrected, decay corrected to the half-life of ^111In, and corrected for injected activity, with each voxel representing the percentage of the injected dose per cm^3 (%ID/cm^3).
Head and full-body CT images from each imaging session were nonlinearly registered using Advanced Normalization Tools (ANTs) to the appropriate population-based CT template (described below). Regions of interest (ROIs) were then either drawn manually in on individual CT images, manually in the template space, or were computed automatically in the case of the delineation between CSF and brain described below. Manual ROIs were drawn using ITK-SNAP software. Spherical ROIs (Ø 1.4 mm) for striatum and thalamus were placed using the in-house MRI template as reference. […]

[2] = Stability of ^111In-LA-DOTA complex in CSF or brain homogenate (radio-TLC); format: in vitro ADME, rat; conditions: CSF and BH, 37° C., over 48 hours
Protocol: To obtain CSF and brain homogenate for assessing AuNP stability, rats were anesthetized with subcutaneous ketamine (100 mg/kg) and dexmedetomidine (0.5 mg/kg) and fixed to a stereotaxic frame after verification of loss of response to painful stimuli. The cisterna magna was exposed and CSF was carefully drawn using a syringe and a 30 G needle. The rats were euthanized, the brains were quickly dissected and cut in four quarters. Each quarter was mixed in 5 mL phosphate-buffered saline (PBS) using a homogenizer. Both the CSF and brain homogenates were stored at —80° C. To allow UV-VIS characterization at low radioactivity level, radiolabeled AuNPs were mixed with non-radiolabeled, PEG-coated AuNPs from the same batch (see section 2.2). The gold concentration was the same in both AuNPs samples (0.373 mg/mL). […]
Free ^111In-LA-DOTA: The following mixtures were prepared and analyzed: 1) CSF (30 μL)+^111In-LA-DOTA complex solution (30 μL), 2) Brain homogenate (15 μL)+PBS (15 μL)+^111In-LA-DOTA complex solution (30 μL). […] The mixtures were incubated at 37° C. and samples were analyzed by radio-TLC at 0, 4, 24, and 48 hours. […]

AUC0-3 h Brain [1]: 84.2 ± 13.6^c % ID · h
AUC0-3 h CSF [1]: 40.2 ± 9.4 % ID · h
AUC0-3 h Cervical spine [1]: 126.5 ± 30.32 % ID/cm^3 · h
AUC0-3 h Deep lymph nodes [1]: 0.1 ± 0.1^f % ID/cm^3 · h
AUC0-3 h Nasal turbinates [1]: 2.4 ± 1.4^b % ID/cm^3 · h
AUC0-3 h Pharyngeal lymph vessel [1]: 0.5 ± 0.1^d % ID/cm^3 · h
AUC0-3 h Striatum [1]: 4.5 ± 1.5 % ID/cm^3 · h
AUC0-3 h Thalamus [1]: 7.5 ± 4.2^k % ID/cm^3 · h
Peak tracer mass Brain [1]: 39.6 ± 4.3 % ID
Peak tracer mass CSF [1]: 27.3 ± 3.5 % ID
Peak tracer mass Intracranial [1]: 65.4 ± 6.0 % ID
Peak tracer mass Striatum [1]: 4.3 ± 1.6 % ID/cm^3
Peak tracer mass Thalamus [1]: 8.3 ± 3.1^n % ID/cm^3
Residual after 3 h Brain [1]: 20.6 ± 5.0^g % ID
Residual after 3 h CSF [1]: 4.9 ± 1.3 % ID
Residual after 3 h Intracranial [1]: 25.5 ± 6.2 % ID
AUC0-3 h Intracranial ([1]; intracisternal infusion, rats): 124.4 ± 22.5 % ID · h
SMILES: O=C(O)CN1CCN(CC(=O)O)CCN(CC(=O)NCCNC(=O)CCCCC2CCSS2)CCN(CC(=O)O)CC1 (stereo not drawn) [^111In-LA-DOTA, 2,2′,2″-(10-(2-((2-(5-(1,2-dithiolan-3-yl)pentanamido)ethyl)amino)-2-oxoethyl)-1,4,7,10-tetraazacyclododecane-1,4,7-triyl)triacetic acid, metal not drawn]
stability of the chelate (release of ^111In from the chelator) [2]: stable; also recorded: did not result in appreciable destabilization
